Values after ≈ are worked out from the molar mass of the structure shown.
Experiments:
Type in all cases: functional
[1] = test system: Nannizzia gypsea; experiment: Antifungal activity against Microsporum gypseum C115 by microbroth dilution method
[2] = test system: Cryptococcus neoformans; experiment: Antifungal activity against Cryptococcus neoformans ATCC 32264 by microbroth dilution method
[3] = test system: Aspergillus flavus; experiment: Antifungal activity against Aspergillus flavus ATCC 9170 by micro-broth dilution method
[4] = test system: Saccharomyces cerevisiae; experiment: Antifungal activity against Saccharomyces cerevisiae ATCC 9763 by microbroth dilution method
[5] = test system: Trichophyton mentagrophytes; experiment: Antifungal activity against Trichophyton mentagrophytes ATCC 9972 by micro-broth dilution method
[6] = test system: Aspergillus fumigatus; experiment: Antifungal activity against Aspergillus fumigatus ATCC 26934 by micro-broth dilution method
[7] = test system: Aspergillus niger; experiment: Antifungal activity against Aspergillus niger ATCC 9029 by micro-broth dilution method
[8] = test system: Candida tropicalis; experiment: Antifungal activity against Candida tropicalis C131 by micro-broth dilution method
[9] = test system: Trichophyton rubrum; experiment: Antifungal activity against Trichophyton rubrum C113 by microbroth dilution method
[10] = test system: Candida albicans; experiment: Antifungal activity against Candida albicans ATCC 10231 by micro-broth dilution method

Row | Structure (SMILES) | MIC [1] [µg/mL] | MIC [2] [µg/mL] | MIC [3] [µg/mL] | MIC [4] [µg/mL] | MIC [5] [µg/mL] | MIC [6] [µg/mL] | MIC [7] [µg/mL] | MIC [8] [µg/mL] | MIC [9] [µg/mL] | MIC [10] [µg/mL]
1 | COc1ccc(CNc2ccccc2)cc1 | 25 (≈ 117 µM) | > 250 | > 250 | > 250 | 25 (≈ 117 µM) | > 250 | > 250 | > 250 | 25 (≈ 117 µM) | > 250
2 | COc1ccc(CNc2cccc([N+](=O)[O-])c2)cc1 | > 250 | > 250 | > 250 | > 250 | > 250 | > 250 | > 250 | > 250 | > 250 | > 250
3 | C=CCC(Nc1ccccc1)c1ccncc1 (stereo not given) | 125 (≈ 557 µM) | 250 (≈ 1110 µM) | 250 (≈ 1110 µM) | 125 (≈ 557 µM) | 62.5 (≈ 279 µM) | 250 (≈ 1110 µM) | 250 (≈ 1110 µM) | 250 (≈ 1110 µM) | 250 (≈ 1110 µM) | 250 (≈ 1110 µM)
4 | C=CCC(Nc1ccc(Cl)cc1)c1cccn1C (stereo not given) | > 250 | > 250 | > 250 | > 250 | 250 (≈ 959 µM) | > 250 | > 250 | > 250 | 250 (≈ 959 µM) | > 250
5 | C=CCC(Nc1ccc(C)cc1)c1ccco1 (stereo not given) | > 250 | > 250 | > 250 | > 250 | > 250 | > 250 | > 250 | > 250 | > 250 | > 250
6 | Cc1ccc(NCc2cccc(N)c2)cc1 | 100 (≈ 471 µM) | 100 (≈ 471 µM) | 25 (≈ 118 µM) | 100 (≈ 471 µM) | 100 (≈ 471 µM) | 25 (≈ 118 µM) | 12.5 (≈ 58.9 µM) | 50 (≈ 236 µM) | 100 (≈ 471 µM) | 50 (≈ 236 µM)
7 | C=CCC(Nc1ccc(C)cc1)c1cccs1 (stereo not given) | 50 (≈ 205 µM) | > 250 | > 250 | > 250 | 6.25 (≈ 25.7 µM) | > 250 | > 250 | > 250 | 12.5 (≈ 51.4 µM) | > 250
8 | C=CCC(Nc1ccccc1)c1ccoc1 (stereo not given) | 125 (≈ 586 µM) | 250 (≈ 1170 µM) | > 250 | > 250 | 62.5 (≈ 293 µM) | > 250 | > 250 | > 250 | 62.5 (≈ 293 µM) | > 250
9 | C=CCC(Nc1ccc(Cl)c(Cl)c1)c1ccco1 (stereo not given) | > 250 | > 250 | > 250 | > 250 | > 250 | > 250 | > 250 | > 250 | > 250 | > 250
10 | C=CCC(Nc1ccc(Cl)cc1)c1ccsc1 (stereo not given) | > 250 | 250 (≈ 948 µM) | > 250 | > 250 | > 250 | > 250 | > 250 | > 250 | > 250 | > 250
11 | Oc1ccc(CNc2ccccc2)cc1 | 50 (≈ 251 µM) | > 250 | > 250 | 250 (≈ 1250 µM) | 25 (≈ 125 µM) | > 250 | > 250 | 250 (≈ 1250 µM) | 25 (≈ 125 µM) | > 250
12 | N#CC(Nc1ccccc1)c1ccco1 (stereo not given) | > 250 | > 250 | > 250 | > 250 | 250 (≈ 1260 µM) | > 250 | > 250 | > 250 | 250 (≈ 1260 µM) | > 250
13 | N#CC(Nc1ccccc1)c1ccsc1 (stereo not given) | > 250 | > 250 | > 250 | > 250 | 250 (≈ 1170 µM) | > 250 | > 250 | > 250 | 250 (≈ 1170 µM) | > 250
14 | C=CCC(Nc1ccc(Cl)cc1)c1ccoc1 (stereo not given) | 62.5 (≈ 252 µM) | 125 (≈ 505 µM) | > 250 | > 250 | 62.5 (≈ 252 µM) | > 250 | > 250 | > 250 | 62.5 (≈ 252 µM) | > 250
15 | C=CCC(Nc1ccccc1)c1cccs1 (stereo not given) | 125 (≈ 545 µM) | > 250 | > 250 | > 250 | 125 (≈ 545 µM) | > 250 | > 250 | > 250 | 125 (≈ 545 µM) | > 250
16 | C=CCC(Nc1cc(C)cc(C)c1)c1ccncc1 (stereo not given) | 125 (≈ 495 µM) | > 250 | > 250 | 250 (≈ 991 µM) | 125 (≈ 495 µM) | > 250 | > 250 | 250 (≈ 991 µM) | 250 (≈ 991 µM) | 250 (≈ 991 µM)
17 | N#CC(Nc1ccccc1)c1cccs1 (stereo not given) | > 250 | > 250 | > 250 | > 250 | 250 (≈ 1170 µM) | > 250 | > 250 | > 250 | 250 (≈ 1170 µM) | > 250
18 | CN(C)c1ccc(CNc2ccccc2)cc1 | > 250 | > 250 | > 250 | > 250 | > 250 | 200 (≈ 884 µM) | > 250 | > 250 | > 250 | > 250
19 | C=CCC(Nc1ccc(OC)cc1)c1ccncc1 (stereo not given) | 62.5 (≈ 246 µM) | > 250 | > 250 | > 250 | 125 (≈ 491 µM) | > 250 | > 250 | > 250 | 125 (≈ 491 µM) | > 250
20 | N#CC(Nc1ccccc1)c1ccoc1 (stereo not given) | > 250 | > 250 | > 250 | > 250 | 250 (≈ 1260 µM) | > 250 | > 250 | > 250 | 250 (≈ 1260 µM) | > 250
21 | C=CCC(Nc1ccc(Br)cc1)c1ccncc1 (stereo not given) | 16 (≈ 52.8 µM) | > 250 | > 250 | > 250 | 31.2 (≈ 103 µM) | > 250 | > 250 | > 250 | 16 (≈ 52.8 µM) | > 250
22 | C=CCC(Nc1ccc(C)cc1)c1ccsc1 (stereo not given) | > 250 | > 250 | > 250 | > 250 | > 250 | > 250 | > 250 | > 250 | > 250 | > 250
23 | C=CCC(Nc1ccccc1)c1ccsc1 (stereo not given) | 125 (≈ 545 µM) | 250 (≈ 1090 µM) | > 250 | > 250 | 250 (≈ 1090 µM) | > 250 | > 250 | > 250 | 250 (≈ 1090 µM) | > 250
